In PMC12264554, “Application of preclinical absorption, distribution, metabolism, elimination in vitro techniques for the characterization and compound library optimization of novel antibiotic gallium salophen” (Drug Metabolism and Disposition, 2025):
Where two headings read alike, the source gives them in different places.

Columns and labels:
[1] = Experimental LogP by reverse-phase HPLC method; format: physicochemical; conditions: extrapolated log kw
Description: LogP was experimentally determined using previously published reverse-phase high-performance liquid chromatography method, and this workflow was adapted using instrumentation described in the previous LC-MS/MS analysis section ([Coutinho et al, 2023]). Briefly, analogs were eluted using isocratic flow with an increasing percentage of organic solvent from 55% to 90% in increments of 5%. The change in the log of the retention factor, log k, was plotted against the fraction of organic solvent. This allowed for extrapolation to the y-intercept, which is when the fraction of organic in the system is zero, or log kw. The same workflow was applied to known compounds with a published logP value to establish a relationship between logP and log kw. This ratio was used to calculate the experimental logP from the log kw of the test compounds. The in silico prediction of logP values was obtained using an online calculator by Molinspiration Cheminformatics (molinspiration.com).

[2] = Caco-2 permeability screening; format: in vitro ADME; conditions: for Papp: Caco-2, ranked by Papp against control drugs, read-out: Permeability ranking; for efflux ratio at 20 µM: human
Description: Caco-2 cells were received from American Type Culture Collection and certified mycoplasma free. Cells were seeded on transwell plates (CoStar, growth area 0.33 cm^2/well, polycarbonate membrane, 0.33 μm pore size) between passage 20 and 27 and then analyzed between 21 and 25 days after wells were seeded to ensure enterocyte-like differentiation. Before assessing permeability, cells were washed once with Hank’s Balanced Salt Solution buffer, pH 7.4, and then incubated at 37 °C for 30 minutes. Transepithelial electrical resistance (TEER) was measured after equilibration before the experiment using an epithelial volt-ohmmeter (EVOM, World Precision Instruments), and cells were used if TEER > 250 Ω × cm^2. Cells were dosed to measure permeability from basolateral and apical sides at a concentration of 20 μM of test compound and 50 μM of Lucifer yellow. Lucifer yellow was used as a “zero permeability” marker to monitor the integrity of cell barrier. Samples were taken at 0 and 60 minutes from the donor side, and samples were taken at 30 and 60 minutes from the receiver side; media was replenished after the 30-minute sample was taken from both chambers. A calibration curve was prepared by serial dilution using the dosing solution in a 1:5 dilution. […] Samples were prepared for LC-MS/MS analysis by taking 100 μL of sample, adding 1 μM internal standard (GaSal-4 or GaSal-5), and crashing with 400 μL of methanol. Samples were centrifuged at 3000 rpm at 4 °C for 30 minutes, 200 μL of supernatant was transferred to a new plate, and 100 μL of water was added to each sample. Samples were vortexed and analyzed by LC-MS/MS as described earlier. […] To preliminarily evaluate organic cation transporter 1 (OCT1) or P-glycoprotein (P-gp)-dependent transport, transport studies were conducted with and without a 1 μM “inhibitor cocktail” alongside GaSal. […] The Papp for basolateral to apical, Papp apical to basolateral, and efflux ratio were reported for each compound. In order to calculate Papp, the concentration in the sampled time point was determined from the calibration curve and then converted to μg based on the volume of the chamber (0.2 mL for apical, 1.0 mL for basolateral). […] The calculation of Papp was determined using eq. […] Data are presented as the average ± SEM for each compound analyzed as n = 3 on 2 different days with 2 different cell line passages, for n = 6 total. GaSal is n = 3 on 3 different cell line passages since this was used as a test compound for the inhibition cocktail experiments.

[3] = RBC/PL partitioning equilibrium in whole blood; conditions: for ICP-MS calculated KRBC/PL / LC-MS/MS calculated KRBC/PL: sodium heparin whole blood, 6 selectivity lots; for KRBC/PL: K2EDTA whole blood
Description: The mixtures were digested at 80 °C for 4 hours and further diluted to a concentration of 6% nitric acid. Gallium (Ga^71) in whole blood, PL, and RBC samples were quantified using an Agilent 7700x ICP-MS instrument (Agilent Technologies). Metal levels were detected using an Octopole Reaction System in He mode. Other ICP-MS parameters include an radio frequency power of 1500 W, on octupole radio frequency of 190 V, an octapole bias of –18 V, a helium gas flow of 4.3 mL/min, and an argon flow of 0.99 L/min. Samples were loaded through a 7700X peristaltic (with a speed of 0.1 rps) and a MicroMist nebulizer. A standard calibration curve was used to derive metal concentrations. The calibration standards from 0–250 ppb were prepared in 6% nitric acid using atomic absorption standards (Sigma). Data analysis and extraction were performed using Agilent’s MassHunter software version 5.1, specifically version D.01.01.
All LC-MS/MS grade solvents were purchased from ThermoFisher. Ammonium bicarbonate was purchased from Sigma Aldrich. Analysis was performed on a Waters I-Class ultra-performance liquid chromatography system connected with a Waters Xevo TQ-XS mass spectrometer. Ten millimolar ammonium bicarbonate, pH 9.4 was used for mobile phase A, and 100% methanol was used for mobile phase B. The column flow rate was set at 0.400 mL/min. Chromatographic separation was performed with a BEH C18 (2.1 × 50 mm, 1.7 μm) column (Waters). […] The total run time was 4 minutes. The column temperature was set to 60 °C, and the autosampler temperature was set to 15 °C. Washing parameters were 800 μL of weak needle wash (acetonitrile [ACN]:Water/50:50) and 1000 μL of strong needle wash (methanol:ACN:2-propanol:formic acid/30:30:40:0.5) after every injection. Transitions used to monitor all drugs in the study are shown in Supplemental Table 1.
Whole blood (either potassium EDTA [K2EDTA] or sodium heparin) was preincubated at 37 °C for 30 minutes before spiking with the analyte. GaSal-5 was made at a stock concentration of 100 μg/mL in water and then spiked at a high concentration (1 μg/mL) and low concentration (100 ng/mL) to determine whether equilibrium was concentration dependent. Samples were then aliquoted and stored in a water bath at 37 °C for 1, 2, 3, 4, and 8 hours or harvested immediately. PL was harvested from samples by centrifuging at 3000 rpm at 4 °C for 10 minutes. PL was transferred to a new tube and considered the PL fraction, whereas the rest of the matrix was considered the RBC fraction. Samples were then either analyzed by LC-MS/MS or ICP-MS. […] For selectivity lot analysis, whole blood from 3 male and 3 female donors were incubated for 2 hours and then analyzed with LC-MS/MS and ICP-MS at a single concentration of 1 μg/mL. Data are presented as average ± SEM, n = 3 per sample, per concentration. Significance was determined by using a paired t test for ICP-MS and LC-MS/MS data (the same sample, different method) or a 2-tailed Student’s t test for different anticoagulants.

[4] = Caco-2, 20 μM, 30 and 60 min, average ± SEM, read-out: Papp apical to basolateral
[5] = Caco-2, 20 μM, 30 and 60 min, average ± SEM, read-out: Papp basolateral to apical
[6] = Caco-2, 20 μM, read-out: Efflux ratio B to A/A to B
[7] = 0.1 μg/mL, pooled K2EDTA whole blood, 2 hours, LC-MS/MS (ICP-MS for Ga^3+)
[8] = 0.1 μg/mL, pooled sodium heparin whole blood, 2 hours, LC-MS/MS (ICP-MS for Ga^3+)
[9] = 1 μg/mL, pooled K2EDTA whole blood, 2 hours, LC-MS/MS (ICP-MS for Ga^3+)
[10] = 1 μg/mL, pooled sodium heparin whole blood, 2 hours, LC-MS/MS (ICP-MS for Ga^3+)
[11] = 1 μg/mL, selectivity lots n = 6, LC-MS/MS
[12] = 1 μg/mL, selectivity lots n = 6, LC-MS/MS (also in Table 4)

SMILES | logP [1] | Papp A→B [2, 4] | Papp B→A [2, 5] | Papp [2] | efflux ratio at 20 µM [2, 6] | K2EDTA KRBC/PL [3, 7] | Heparin KRBC/PL [3, 8] | K2EDTA KRBC/PL [3, 9] | Heparin KRBC/PL [3, 10] | K2EDTA KRBC/PL [3, 11] | Heparin KRBC/PL [3, 12] | ICP-MS calculated KRBC/PL ([3]; 1 μg/mL, 2 hours) | LC-MS/MS calculated KRBC/PL ([3]; 1 μg/mL, 2 hours) | also measured
Oc1ccccc1/C=N/c1ccccc1/N=C/c1ccccc1O.[Ga+3] [GaSal, gallium salophen] | 2.58 | 1.2 ± 0.01 ×10⁻⁶ cm/s | 13.6 ± 1.78 ×10⁻⁶ cm/s | 1.12 to 3.51 ×10⁻⁶ cm/s | 11.3 | 0.22 ± 0.02 | 0.61 ± 0.42 | 0.26 ± 0.03 | 0.57 ± 0.19 | 0.58 ± 0.02 | 0.45 ± 0.03 | 0.89 ± 0.04 | 0.45 ± 0.03 | Papp A→B ([2]; Caco-2, with OCT1 inhibitor cocktail (1 μM verapamil and cisplatin), read-out: Papp Apical to Basolateral): 1.81 ± 0.03 ×10⁻⁶ cm/s; Papp B→A ([2]; Caco-2, with OCT1 inhibitor cocktail (1 μM verapamil and cisplatin), read-out: Papp Basolateral to Apical): 14.7 ± 3.26 ×10⁻⁶ cm/s; Papp A→B ([2]; Caco-2, with PGP inhibitor cocktail (1 μM cannabidiol and itraconazole), read-out: Papp Apical to Basolateral): 1.33 ± 0.03 ×10⁻⁶ cm/s; Papp B→A ([2]; Caco-2, with PGP inhibitor cocktail (1 μM cannabidiol and itraconazole), read-out: Papp Basolateral to Apical): 16.8 ± 3.86 ×10⁻⁶ cm/s; efflux ratio at 20 µM ([2]; Caco-2, with OCT1 inhibitor cocktail, read-out: Efflux Ratio B to A/ A to B): 8.1; efflux ratio at 20 µM ([2]; Caco-2, with PGP inhibitor cocktail, read-out: Efflux Ratio B to A/ A to B): 12.6
Oc1cc(OCCN2CCOCC2)ccc1C=Nc1ccccc1N=Cc1ccc(OCCN2CCOCC2)cc1O.[Ga+3] [GaSal-3] | 3.87 | 0.04 ± 0.01 ×10⁻⁶ cm/s | 1.16 ± 0.09 ×10⁻⁶ cm/s | < 1.12 ×10⁻⁶ cm/s | 29 | 0.28 ± 0.08 | 1.08 ± 0.28 | 0.28 ± 0.04 | 1.03 ± 0.24 | – | – | – | – | –
O=C(O)CCOc1ccc(C=Nc2ccccc2N=Cc2ccc(OCCC(=O)O)cc2O)c(O)c1.[Ga+3] [GaSal-4] | 3.33 | < 0.01 ×10⁻⁶ cm/s | 1.44 ± 0.19 ×10⁻⁶ cm/s | < 1.12 ×10⁻⁶ cm/s | – | 2288 ± 94 | 3422 ± 435 | 9220 ± 484 | 8098 ± 1102 | – | – | – | – | –
COCCOCCOc1ccc(C=Nc2ccccc2N=Cc2ccc(OCCOCCOC)cc2O)c(O)c1.[Ga+3] [GaSal-5] | 3.95 | 0.03 ± 0.01 ×10⁻⁶ cm/s | 3.2 ± 0.2 ×10⁻⁶ cm/s | < 1.12 ×10⁻⁶ cm/s | 107 | 0.63 ± 0.36 | 1.91 ± 0.57 | – | 1.34 ± 0.17 | 0.16 ± 0.03 | 0.56 ± 0.03 | 0.36 ± 0.03 | 0.56 ± 0.03 | KRBC/PL ([3]; 2 hours, ICP-MS, HQC (1 μg/mL)): 0.572 ± 0.008; KRBC/PL ([3]; 2 hours, ICP-MS, LQC (100 ng/mL)): 0.632 ± 0.080; KRBC/PL ([3]; 2 hours, LC-MS/MS, HQC (1 μg/mL)): 0.043 ± 0.017; KRBC/PL ([3]; 2 hours, LC-MS/MS, LQC (100 ng/mL)): 0.070 ± 0.007
COCCOc1ccc(/C=N/c2ccccc2/N=C/c2ccc(OCCOC)cc2O)c(O)c1.[Ga+3] [GaSal-13] | 3.65 | 0.61 ± 0.01 ×10⁻⁶ cm/s | 0.91 ± 0.1 ×10⁻⁶ cm/s | < 1.12 ×10⁻⁶ cm/s | 1.49 | 0.55 ± 0.35 | 0.47 ± 0.22 | 0.08 ± 0.04 | 0.59 ± 0.18 | – | – | 0.48 ± 0.04 | 0.42 ± 0.03 | –
COCCOc1ccc(/C=N/c2ccccc2N=C(C)c2ccccc2O)c(O)c1.[Ga+3] [GaSal-14] | 3.31 | < 0.01 ×10⁻⁶ cm/s | 1.19 ± 0.4 ×10⁻⁶ cm/s | < 1.12 ×10⁻⁶ cm/s | – | 0.69 ± 0.10 | 0.55 ± 0.07 | 1.65 ± 0.18 | 1.86 ± 0.36 | 0.08 ± 0.01 | 0.33 ± 0.04 | 0.34 ± 0.02 | 0.33 ± 0.04 | –
